The text below walks through data of patent US12564575B2 (priority 2019, dated 2026).

SMILES strings stand for the structures. Entries after “also recorded” stand apart in the source; their conditions may differ.

The test system of assay [1] is vero epithelial cells (CCL-81). Nature of the assay: ECIS study of vero epithelial cells exposed to snake venom. The conditions noted are these: for cellular function and cell-cell junction integrity measured by resistance: C. scutulatus whole venom (high sPLA2 content). Format: cell-based, African green monkey.
In assay [2] the test system is Streptococcus suis. Nature of the assay: Juvenile pig with Streptococcus suis infection during experimental envenoming study. Type of assay: in vivo, Sus domesticus. The conditions noted are these: S. suis infected juvenile pig; LY315920 plus single non-curative antibiotic dose; euthanized as scheduled.
The subject of assay [3] is LPS/OA induced ARDS. More on the design: species or system C57BL/6 mice. The note with it: mouse, in vivo, po, 10 mg/kg.
Assay [4] concerns LPS/OA-induced lung injury and ARDS. Format: in vivo, C57BL/6 mice.
Assay [5] concerns venom MP (Sistrurus venom metalloprotease activity). Type of assay: biochemical, Viper, elapid and colubrid venom. The note with it: FIG. 4, Table 2; comparison of hydroxamate metalloprotease inhibitors.

For `CCc1c(C(=O)C(N)=O)c2c(OCC(=O)O)cccc2n1Cc1ccccc1` [varespladib], the “difference in response between the two varespladib doses” value in assay [1] (0.05 mg/ml versus 0.01 mg/mL) is “no significant difference”. Further, the “inter-cellular attachments (resistance) and cell viability (capacitance)” value in assay [1] (C. scutulatus and Daboia russelli (Pakistan) venoms, varespladib 0.05 mg/ml and 0.01 mg/mL) is “recovers and stabilizes inter-cellular attachments (resistance) and cell viability (capacitance)”. The “cellular function and cell-cell junction integrity measured by resistance” value in assay [1] was “preserves cellular function and cell-cell junction integrity”. For the same molecule, in assay [2], the survival was over 100 h.
For `C[C@H](Cc1cccc(-c2cc(Cc3ccccc3)ccc2C(N)=O)c1)C(=O)O` [AZD2716, (R)-3-(5′-benzyl-2′-carbamoyl-[1,1′-biphenyl]-3-yl)-2-methylpropanoic acid], in assay [1], the “cellular function and cell-cell junction integrity measured by resistance” value is “preserves cellular function and cell-cell junction integrity”. In addition, the “damage from LPS/OA induced ARDS (histopathology)” value in assay [3] was “rescue and reduce damage”. Besides, the “clinical appearance of treated animals” value in assay [4] ([…], 24 and 48 hours, versus lethargic, tachypneic controls) was “bright, alert and responsive”. Further, the “lung sound amplitude, distance from maximum (audiogram)” value in assay [4] ([…], recordings at 24 hours, control −29.7 db) is −38.5 db. For the same molecule, in assay [4] ([…], treated quieter), the “difference in lung sound amplitude between treated and untreated mice” value is about 10 dB. Besides, the “alveolar damage (ATS workshop lung injury score)” value in assay [4] (mouse, in vivo) is “prevented and rescued; also recorded: protects and reduces alveolar damage”.
As to `CNC(=O)[C@@H](NC(=O)[C@H](CC(C)C)[C@H](O)C(=O)NO)C(C)(C)C` [marimastat], the “potency (IC50) against venom metalloprotease activity, in words” value in assay [5] is “good to excellent performance”.
